# Test results published in patent US20220017877A1, “BILIRUBIN OXIDASE ACTIVITY IMPROVING METHOD, AND BILIRUBIN OXIDASE PRODUCT” (OZEKI CORPORATION, priority 2018, published 2022).
# Counter-ions that a name gives are not always drawn.
# Tests used:
# [1] = target: T1, recombinant BOD (bilirubin oxidase) derived from Myrothecium verrucaria MT-1 (Albifimbria verrucaria, UniProt Q12737); assay: BOD activity after leaving the BOD solution with an activity improving agent or comparative substance at 30° C. in a deoxygenated atmosphere (Test Example 1); type: biochemical; details: for Activity (%) Day 47: left 47 days at 30° C.; for Activity (%) Day 47 / Activity (%) Day 14: relative to Day 0, additive concentration as in Table 1; for Activity (%) Day 0: 30° C., additive concentration as in Table 1; for Activity (%) Day 14: left 14 days at 30° C.
# T1 construct: made in house; host or cells: Aspergillus sp
# T1 sequence (Q12737 39-572): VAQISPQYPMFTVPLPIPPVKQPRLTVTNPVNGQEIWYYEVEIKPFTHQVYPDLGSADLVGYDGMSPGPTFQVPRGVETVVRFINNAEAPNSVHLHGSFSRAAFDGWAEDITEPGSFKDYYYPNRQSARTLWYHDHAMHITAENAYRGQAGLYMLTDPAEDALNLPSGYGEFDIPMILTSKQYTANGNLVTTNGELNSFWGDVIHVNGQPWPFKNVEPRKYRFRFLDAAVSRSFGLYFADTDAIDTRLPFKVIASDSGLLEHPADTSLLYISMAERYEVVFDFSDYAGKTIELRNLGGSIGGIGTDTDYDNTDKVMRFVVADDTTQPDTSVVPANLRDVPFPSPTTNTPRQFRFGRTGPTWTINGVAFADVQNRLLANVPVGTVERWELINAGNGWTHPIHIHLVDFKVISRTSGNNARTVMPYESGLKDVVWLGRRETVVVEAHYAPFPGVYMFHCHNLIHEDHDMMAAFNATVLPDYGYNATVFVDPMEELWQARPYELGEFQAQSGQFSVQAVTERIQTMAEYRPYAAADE
# Description: A BOD solution, which contains: a BOD; and the present activity improving agent or a comparative substance, was left in an environment at a temperature of 30° C. in a deoxygenated atmosphere for a certain period of time. After the BOD solution was left as above, improvement of the BOD activity by the present activity improving method was evaluated by measurement of the BOD activity.
# In Test Example 1, a BOD gene derived from a Myrothecium verrucaria MT-1 (GenBank accession number: D12579.1) was introduced into an Aspergillus sp., and then a recombinant BOD (hereinafter, also referred to simply as “BOD”) expressed in the Aspergillus sp. was purified by using a well-known technique and then used as the BOD. The BOD gene derived from the Myrothecium verrucaria MT-1 was codon-optimized in accordance with a gene sequence of the Aspergillus sp., and then introduced into the Aspergillus sp. Further, the BOD thus purified was dissolved in a 50 mM glycine-KOH (pH 8.5) buffer so that the concentration of the BOD became 1.0 mg/mL. Then, a resultant solution was used as a BOD enzyme solution.
# The enzymatic activity of the BOD was measured as follows. To 1780 μL of a 50 mM potassium phosphate buffer (pH 6.5), 200 μL of a 20 mM ABTS substrate solution was added, so that a mixed solution (1980 μL) was prepared. This mixed solution was incubated for 1 min at 37° C. Thereafter, 20 μL of a solution containing the BOD (specifically, a BOD solution for evaluation, which will be described later) was added to the mixed solution, and a resultant mixed solution (2 mL) was incubated at 37° C. While the mixed solution was incubated, the absorbance of the mixed solution at a wavelength of 436 nm was measured immediately after that addition of the BOD solution for evaluation (at 0 seconds) and thereafter every 20 seconds. On the basis of (i) the absorbance of the mixed solution at a wavelength of 436 nm immediately after the addition of the BOD solution for evaluation and (ii) the absorbance of the mixed solution at a wavelength of 436 nm after a lapse of 1 minute from the addition of the BOD solution for evaluation, calculation was carried out for obtaining an increase rate per minute of the absorbance of the mixed solution at a wavelength of 436 nm after the addition of the BOD solution for evaluation. The BOD activity (unit) in the BOD solution for evaluation was calculated from the increase rate. In the present specification, the amount of enzyme for oxidizing 1 μmol of ABTS per minute was defined as one unit.
# A specific test method of Test Example 1 is as follows. To a BOD enzyme solution containing a BOD, one of the above-described present activity improving agents was added, so that a BOD solution (which is the BOD solution according to an embodiment of the present invention) was prepared. Further, one of the above-described comparative substances was added to the BOD enzyme solution, so that another BOD solution was prepared. In addition, still another BOD solution was prepared by adding, to the BOD enzyme solution, distilled water in place of the activity improving agent or the comparative substance, so that a control (denoted as Without additive in Tables 1 to 3) was prepared. The final concentration of the activity improving agent or the comparative substance in each of the above BOD solutions was shown in “mM” or “percentage (%)” (amount (g) of the activity improving agent or the comparative substance relative to 100 mL of the BOD solution) in Table 1.
# Thereafter, one of these BOD solutions and a deoxygenating agent (Anaero Pack manufactured by Mitsubishi Gas Chemical Company, Inc.) were included in one container. Then, the container was sealed, so that a BOD container was prepared. The BOD container was left in an environment at a temperature of 30° C. in a deoxygenated atmosphere for 47 days (Table 2) or 14 days (Table 3). […]
# [2] = ABTS initial absorbance (A436) reduction rate (Test Example 3); type: physicochemical; details: for A436 reduction rate (%): in one minute at 25° C., 1 mM (single compound) or 0.011 g nitrogen element in 100 mL (composition), pH 8.5; for change of ABTS initial absorbance: reaction solution A, FIG. 2
# Description: In the present specification, the absorbance of a solution containing ABTS (ABTS solution), at a wavelength of 436 nm, is defined as an ABTS initial absorbance (A436). In the present specification, the ABTS initial absorbance (A436) reduction rate (%) of the activity improving agent is defined to be a reduction rate (%) of the absorbance of a mixed solution, which contains the above ABTS solution and the above activity improving agent, at a wavelength of 436 nm in one minute, with respect to the ABTS initial absorbance (A436) (100%). Note that the ABTS solution is a solution in which the concentration of ABTS is adjusted such that the absorbance (A436) at a wavelength of 436 nm is approximately 1.3 at an optical path length of 1.0 cm. The value “approximately 1.3” here is intended to mean a value in a range in which 1.3 is obtained by rounding the value to the first decimal place. Test Examples described later will explain specific methods for measuring the absorbance (A436) of the ABTS solution at a wavelength of 436 nm and the ABTS initial absorbance (A436) reduction rate (%) of the activity improving agent. ABTS is an abbreviation for 2,2′-azinobis(3-ethylbenzothiazoline-6-sulfonic acid).
# In the present activity improving method, when the ABTS initial absorbance (A436) reduction rate (%) of the activity improving agent is measured, the concentration of the activity improving agent in the ABTS solution for measurement is set as follows: (a) the concentration is set to 1 mM, when the molecular weight of the activity improving agent is evident as in a case where the activity improving agent is made of a single compound; and (b) when the activity improving agent is a substance which is made of a composition having an inevident molecular weight, the content of nitrogen element is used as a reference and the concentration is set such that the content of nitrogen element derived from the activity improving agent is 0.011 g in 100 mL of the ABTS solution for measurement. Note that, in the above (b), the content of nitrogen element derived from the activity improving agent in the ABTS solution is a value calculated by the Kjeldahl method.
# The following describes a specific evaluation method. ABTS employed was an ABTS manufactured by Roche Diagnostics K.K. Further, the ABTS was dissolved in a 50 mM glycine-KOH (pH 8.5) buffer so that the concentration of the ABTS became 2.0 mg/mL. An ABTS solution was thus prepared. The absorbance of the ABTS solution at a wavelength of 436 nm (ABTS initial absorbance (A436)) was measured at an optical path length of 1.0 cm, by using a molecular absorption spectrometer Spectra Max Plus 384 (manufactured by Molecular Devices Japan K.K.). As a result the absorbance was approximately 1.3. Next, 5 μL of an activity improving agent solution or a comparative substance solution was added to 195 μL of the ABTS solution, so that a reaction solution for evaluating ABTS (hereinafter, also referred to as “reaction solution A”) was prepared. […]
# [3] = Day 0 (start of leaving, set to 100%) of the 14-day test
# [4] = Day 0 (start of leaving, set to 100%)
Structure (SMILES),Activity (%) Day 47 [1] [%],A436 reduction rate (%) [2] [%],"Activity (%) Day 0 [1, 3] [%]",Activity (%) Day 14 [1] [%],change of ABTS initial absorbance [2],"Activity (%) Day 0 [1, 4] [%]"
"O[C@H](CS)[C@H](O)CS (racemic) [DTT, dithiothreitol, reference compound]",0,87.81,–,–,–,–
"N.N.O=S(=O)(O)O [Ammonium sulfate, ammonium sulfate, reference compound]",–,0.00,100,65,does not change,–
"N.O=C(O)CS [Ammonium thioglycolate, ammonium thioglycolate, reference compound]",0,87.81,–,–,–,100
"NCCS [Cysteamine hydrochloride, cysteamine hydrochloride, reference compound]",1,87.81,–,–,–,–
"O=C(CS)OCC(O)CO (stereo not shown) [GMT, glyceryl monothioglycolate, reference compound]",1,87.81,–,–,–,–
"N[C@@H](CCC(=O)N[C@@H](CS)C(=O)NCC(=O)O)C(=O)O [Glutathione (reduced form), glutathione (reduced form)]",113,87.81,–,–,–,100
"O=CC(=O)O [Glyoxylic acid, glyoxylic acid]",–,0.33,–,194,–,–
Cl.N[C@@H](CS)C(=O)O [L-cysteine hydrochloride],130,87.81,–,–,–,–
CC(=O)N[C@@H](CS)C(=O)O [N-acetyl-L-cysteine],122,87.81,–,–,–,–
"O=S([O-])[O-].[Na+].[Na+] [Sodium sulfite, sodium sulfite]",162,87.81,–,–,–,100
Cc1c(C)c2c(c(C)c1O)CCC(C)(C(=O)O)O2 (stereo not shown) [Trolox],251,83.90,–,–,–,–
"NC(N)=O [Urea, urea, reference compound]",–,0.00,100,56,does not change,–
